Experimental data: patent US20080103205A1, “Pesticidal compositions and methods of use” (priority 2006, published 2008)
Where two headings read alike, the source gives them in different places.

What was measured:
[1] = system: Meloidogyne incognita eggs; test: M. incognita egg hatching; format: in vivo
Experimental: Meloidogyne incognita (plant parasitic nematode) eggs were collected from tomato plant roots and were suspended in water. The solution was either diluted or concentrated to adjust the egg load to about 5000/ml. AT stock solutions prepared in DMSO and 300 ul of test solution was placed in a well, along with 20 ul of aqueous solution containing eggs. The number of eggs in 20 ul solution ranged from 115 to 143 (n=10). Each treatment (2, 5, 10, 20, or 40 ppm) was replicated 5 times. Microplates were sealed with Parafilm™ and incubated at room temperature. Similar tests conducted with 0.2% DMSO alone served as controls. Egg hatching was monitored at 24, 72, 120, and 168 hr after incubation. Both moving and non-moving nematodes were counted to arrive at the number of eggs hatched. Proportion of egg hatch was calculated as the number of juveniles divided by total number of eggs.
VSCC blockers effect on M. incognita egg hatching is shown in the following tables where % hatched is rounded to the nearest percentage point and where “% C*” is % hatch, normalized to control.

Meloidogyne incognita = test: Toxicity test, J2 juveniles of Meloidogyne incognita, 96 well micro plate; format: in vivo; conditions: Meloidogyne incognita
Experimental: Methodology: Toxicity tests were conducted using J2 juveniles of Meloidogyne incognita adult Caenorhabditis elegans collected from nematode-infested tomato plant roots and culture Petri plates, respectively. Test concentrations of 50, 100, 200, 300, or 400 ppm were prepared in 0.2% dimethylsulfoxide (DMSO) in tap water. Aliquots (300 microliters (ul)) were applied to a 96 well micro plate and a 20 ul aqueous solution containing nematodes was added. The number of nematodes in 20 ul ranged from 17 to 30. Micro plates were sealed with Parafilm™ and incubated at room temperature. Similar tests conducted with 0.2% DMSO in tap water served as controls. Nematode mortality was checked at 24, 48, 72, 120, and 168 hr after incubation. Nematodes that were motionless for 30 sec when observed under a stereomicroscope were considered paralyzed and included in mortality counts. Each concentration was replicated five times and mean percent mortality was calculated after correcting for control mortality using Abbott's formula.
Data Analysis: Mortality data were analyzed using PROC PROBIT (SAS) program and LC50 values were estimated.

[2] = 24 h, read-out: Corrected Mortality (%)
[3] = 48 h, read-out: Corrected Mortality (%)
[4] = 72 h, read-out: Corrected Mortality (%)
[5] = 120 h, read-out: Corrected Mortality (%)
[6] = 168 h, read-out: Corrected Mortality (%)

## CC1(C2CCCC2)Cc2cc(OCC(=O)O)c(Cl)c(Cl)c2C1=O (single isomer, unassigned; (+)) [IAA-94, (+)(2-cyclopentyl-6,7-dichloro-2-methyl-1-oxo-5-indanyloxy) acetic acid]
[1]; 2 ppm, 24 hr
  Eggs Hatched %: 10%
  Eggs Hatched % C* (% hatch, normalized to control): 100%
  Eggs Hatched No.: 70
[1]; 2 ppm, 72 hr
  Eggs Hatched %: 15%
  Eggs Hatched % C* (% hatch, normalized to control): 94%
  Eggs Hatched No.: 97
[1]; 2 ppm, 120 hr
  Eggs Hatched %: 19%
  Eggs Hatched % C* (% hatch, normalized to control): 86%
  Eggs Hatched No.: 130
[1]; 2 ppm, 168 hr
  Eggs Hatched %: 24%
  Eggs Hatched % C* (% hatch, normalized to control): 86%
  Eggs Hatched No.: 161
[1]; 5 ppm, 24 hr
  Eggs Hatched %: 10%
  Eggs Hatched % C* (% hatch, normalized to control): 100%
  Eggs Hatched No.: 66
[1]; 5 ppm, 72 hr
  Eggs Hatched %: 13%
  Eggs Hatched % C* (% hatch, normalized to control): 81%
  Eggs Hatched No.: 96
[1]; 5 ppm, 120 hr
  Eggs Hatched %: 19%
  Eggs Hatched % C* (% hatch, normalized to control): 86%
  Eggs Hatched No.: 128
[1]; 5 ppm, 168 hr
  Eggs Hatched %: 22%
  Eggs Hatched % C* (% hatch, normalized to control): 79%
  Eggs Hatched No.: 161
[1]; 10 ppm, 24 hr
  Eggs Hatched %: 9%
  Eggs Hatched % C* (% hatch, normalized to control): 90%
  Eggs Hatched No.: 64
[1]; 10 ppm, 72 hr
  Eggs Hatched %: 13%
  Eggs Hatched % C* (% hatch, normalized to control): 81%
  Eggs Hatched No.: 88
[1]; 10 ppm, 120 hr
  Eggs Hatched %: 18%
  Eggs Hatched % C* (% hatch, normalized to control): 82%
  Eggs Hatched No.: 112
[1]; 10 ppm, 168 hr
  Eggs Hatched %: 20%
  Eggs Hatched % C* (% hatch, normalized to control): 71%
  Eggs Hatched No.: 134
[1]; 20 ppm, 24 hr
  Eggs Hatched %: 8%
  Eggs Hatched % C* (% hatch, normalized to control): 80%
  Eggs Hatched No.: 60
[1]; 20 ppm, 72 hr
  Eggs Hatched %: 12%
  Eggs Hatched % C* (% hatch, normalized to control): 75%
  Eggs Hatched No.: 82
[1]; 20 ppm, 120 hr
  Eggs Hatched %: 15%
  Eggs Hatched % C* (% hatch, normalized to control): 68%
  Eggs Hatched No.: 96
[1]; 20 ppm, 168 hr
  Eggs Hatched %: 17%
  Eggs Hatched % C* (% hatch, normalized to control): 61%
  Eggs Hatched No.: 112
[1]; 40 ppm, 24 hr
  Eggs Hatched %: 8%
  Eggs Hatched % C* (% hatch, normalized to control): 80%
  Eggs Hatched No.: 55
[1]; 40 ppm, 72 hr
  Eggs Hatched %: 11%
  Eggs Hatched % C* (% hatch, normalized to control): 69%
  Eggs Hatched No.: 69
[1]; 40 ppm, 120 hr
  Eggs Hatched %: 13%
  Eggs Hatched % C* (% hatch, normalized to control): 59%
  Eggs Hatched No.: 82
[1]; 40 ppm, 168 hr
  Eggs Hatched %: 14%
  Eggs Hatched % C* (% hatch, normalized to control): 50%
  Eggs Hatched No.: 92
Meloidogyne incognita; 24 h
  mortality at 50 ppm: 8%
  mortality at 100 ppm: 10%
  mortality at 200 ppm: 14%
  mortality at 300 ppm: 20%
  mortality at 400 ppm: 24%
Meloidogyne incognita; [2]
  mortality at 50 ppm: 5%
  mortality at 100 ppm: 7%
  mortality at 200 ppm: 11%
  mortality at 300 ppm: 19%
  mortality at 400 ppm: 22%
Meloidogyne incognita; 48 h
  mortality at 50 ppm: 17%
  mortality at 100 ppm: 22%
  mortality at 200 ppm: 34%
  mortality at 300 ppm: 38%
  mortality at 400 ppm: 43%
Meloidogyne incognita; [3]
  mortality at 50 ppm: 12%
  mortality at 100 ppm: 17%
  mortality at 200 ppm: 30%
  mortality at 300 ppm: 34%
  mortality at 400 ppm: 39%
Meloidogyne incognita; 72 h
  mortality at 50 ppm: 30%
  mortality at 100 ppm: 38%
  mortality at 200 ppm: 61%
  mortality at 300 ppm: 65%
  mortality at 400 ppm: 70%
Meloidogyne incognita; [4]
  mortality at 50 ppm: 22%
  mortality at 100 ppm: 31%
  mortality at 200 ppm: 57%
  mortality at 300 ppm: 61%
  mortality at 400 ppm: 67%
Meloidogyne incognita; 120 h
  mortality at 50 ppm: 51%
  mortality at 100 ppm: 61%
  mortality at 200 ppm: 83%
  mortality at 300 ppm: 90%
  mortality at 400 ppm: 97%
Meloidogyne incognita; [5]
  mortality at 50 ppm: 45%
  mortality at 100 ppm: 56%
  mortality at 200 ppm: 81%
  mortality at 300 ppm: 89%
  mortality at 400 ppm: 97%
Meloidogyne incognita; 168 h
  mortality at 50 ppm: 74%
  mortality at 100 ppm: 85%
  mortality at 200 ppm: 99%
  mortality at 300 ppm: 100%
  mortality at 400 ppm: 100%
Meloidogyne incognita; [6]
  mortality at 50 ppm: 71%
  mortality at 100 ppm: 83%
  mortality at 200 ppm: 99%
  mortality at 300 ppm: 100%
  mortality at 400 ppm: 100%
